In experiment [1] the test system is Bacillus subtilis JHCC 553331. Description: Antibacterial activity assay (microspectrophotometry). It counts as cell-based. The method, then: Antibacterial activity was measured microspectrophotometrically as follows. A bacterial suspension was prepared by inoculating soft nutrient agarose (tryptone, 10 g/l; Seaplaque agarose (FMC), 5 g/l). Aliquots (80 μl) of the bacterial suspension (10^5 colony forming units per ml) were added to filter-sterilized samples (20 μl) in flat-bottom 96-well microplates. The absorbance at 595 nm of the culture was measured with the aid of a microplate reader after 30 minutes and 24 hours of incubation at 28° C. Percent growth inhibition was calculated as described above for the antifungal activity assay.
The antibacterial activities of Ah-AMP1 and Hs-AFP1 were measured on four gram positive bacteria (Bacillus subtilis JHCC 553331; Micrococcus luteus ATCC 93411; Staphylococcus aureus ATCC 25923; Streptococcus feacolis ATCC 29212) and two gram negative bacteria (Eschericia coli HB101 and Proteus vulgaris JHCC 558711).

A further experiment deals with Penicillum digitatum. As to the kind of experiment: Antifungal activity assay (microspectrophotometry). It counts as cell-based. The note with it: host Citrus fruit, inoculum Sp, period of incubation in AFP-solution 48. Here is the method:
(§1) Antifungal activity was measured by microspectrophotometry as previously described (Broekaert, 1990, FEMS Microbiol Lett, 69:55-60). Routinely, tests were performed with 20 μl of a (filter-sterilized) test solution and 80 μl of a suspension of fungal spores (2×10^4 spores/ml) in half strength potato dextrose broth (1/2 PDB). […] Control microcultures contained 20 μl of sterile distilled water and 80 μl of the fungal spore suspension.
(§2) Unless otherwise stated the test organism was Fusarium culmorum (strain IMI 180420) and incubation was done at 25° C. for 48 hours. Percent growth inhibition is defined as 100 times the ratio of the corrected absorbance of the control microculture minus the corrected absorbance of the test microculture over the corrected absorbance at 595 nm of the control microculture. The corrected absorbance values equal the absorbance at 595 nm of the culture measured after 48 hours minus the absorbance at 595 nm measured after 30 min.
(§3) The antifungal potency of the purified proteins was assessed on different plant pathogenic fungi, using the assay described in Example 1. Growth of fungi, collection and harvest of fungal spores and preparation of mycelial fragments were done as previously described (Broekaert et al, 1990, FEMS Microbiol Lett, 69:55-60). Serial dilutions of the antifungal proteins were applied to the fungi, either using growth medium SMF- (the synthetic growth medium of Example 1), medium SMF+ (medium SMF- supplemented with 1 mM CaCl2 and 50 mM KCl), growth medium 1/2 PDB- (half strength potato dextrose broth as in Example 1) or growth medium 1/2 PDB+ (medium 1/2 PDB- supplemented with 1 mM CaCl2 and 50 mM Kcl). The percent growth inhibition was measured by microspectrophotometry. The concentration required for 50% growth inhibition after 48 h of incubation (IC50 value) was calculated from the dose-reponse curves.
(§4) The abbreviations used are: IC50 =concentration required for 50% growth inhibition determined as described in Example 1; ND=not determined; Sp=spores; PrSp=spores pregerminated in the medium for 24 hours; MF=mycelial fragments preincubated for 48 hours in the medium prior to addition of the proteins; BHR=broad host range; SF=saprophytic fungus; SMF-=synthetic growth medium as described in Example 1; SMF+=SMF- supplemented with 1 mM CaCl2 and 50 mM KCl; 1/2PDB-=half strength potato dextrose broth as described in Example 1; 1/2PDB+=1/2PDB- supplemented with 1 mM CaCl2 and 50 mM KCl.

For another experiment, the system named is Septoria tritici. Description: Antifungal activity assay (microspectrophotometry). Type of experiment: cell-based. The note with it: strain K1097, host Triticum, inoculum Sp, period of incubation in AFP-solution 48. Here is the method:
as §1, §2, §3, §4

The test system of another experiment is Verticillium albo-atrum. Description: Antifungal activity assay (microspectrophotometry). It counts as cell-based. Conditions: strain K0937, host Lycoperisicum, inoculum Sp, period of incubation in AFP-solution 48. Here is the method: as §1, §2, §3, §4
Another experiment deals with Ascochyta pisi. As to the kind of experiment: Antifungal activity assay (microspectrophotometry). The note with it: strain MUCL30164, host Pisum, inoculum Sp, period of incubation in AFP-solution 48. Type of experiment: cell-based. The method, then:
as §1, §2, §3, §4

The subject of the next experiment is Botrytis cinerea. As to the kind of experiment: Antifungal activity assay (microspectrophotometry). Type of experiment: cell-based. Conditions: strain K1147, host BHR, inoculum Sp, period of incubation in AFP-solution 48. The method, then:
as §1, §2, §3, §4

In another experiment the test system is Leptospaeria maculans. As to the kind of experiment: Antifungal activity assay (microspectrophotometry). Type of experiment: cell-based. The note with it: for antifungal activity on Leptospaeria maculans (in words): in 1/2PDB+; for IC50: host Brassica. Here is the method:
as §1, §2
as §3, with “The concentration required for 50% growth inhibition after 48 h of incubation (IC50 value) was calculated from the dose-reponse curves.” left out
as §4

The next experiment concerns Cercospora beticola. Description: Antifungal activity assay (microspectrophotometry). The note with it: strain SES; host Beta; medium 1/2PDB+; inoculum PrSp; period of incubation in AFP-solution. Type of experiment: cell-based. Here is the method:
as §1, §2
as §3, with “The concentration required for 50% growth inhibition after 48 h of incubation (IC50 value) was calculated from the dose-reponse curves.” left out
as §4

For a further experiment, the system named is Alternaria longipes. As to the kind of experiment: Antifungal activity assay (microspectrophotometry). It counts as cell-based. Conditions: strain CBS620.83, host Nicotiana, inoculum Sp, period of incubation in AFP-solution 70. Here is the method:
as §1, §2
as §3, with “The concentration required for 50% growth inhibition after 48 h of incubation (IC50 value) was calculated from the dose-reponse curves.” left out
as §4

Experiment [2] concerns crude α-amylase extract from guts of adult cockroaches. As to the kind of experiment: Inhibition of α-amylase. Type of experiment: biochemical, Blatta orientalis. Conditions: cockroach gut enzyme; rates as high as 200 μg/ml. The method, then: A crude α-amylase extract was prepared from dissected guts of adult cockroaches (Blatta orientalis) by homogenising in 20 mM Tris/HCl, pH 7.5, 10 mM CaCl2 and removal of cell-debris by centrifugation. Human and porcine α-amylases were purchased from Sigma. Type 1-α-amylaseinhibitor from wheat (purchased from Sigma) was used as a positive control. Amylase extracts were incubated with peptides for 20 min at 30° C. prior to addition of starch and enzyme activity was detected using the method of Bernfeld (1955, Methods Enzymol, Colwick and Kaplan eds, vol 1:149-158).
The α-amylase inhibition activities of Hs-AFP1 and Ah-AMP1 were compared on α-amylases from the three sources to that of the Sorgum bicolor homologue SIα3, previously reported to inhibit insect gut α-amylases (Bloch and Richardson, 1991, FEBS Lett, 279:101-104). SIα3 inhibited the activity of the enzymes from insect gut and human saliva to greater than 70% at rates as low as 5 μg/ml.

Where [3] appears, read: strain LM36uea, medium 1/2PDB+, inoculum Sp, period of incubation in AFP-solution 48.
[4] abbreviates: strain LM36uea, medium 1/2PDB-, inoculum Sp, period of incubation in AFP-solution 48.
[5] abbreviates: strain SES1, medium 1/2PDB+, inoculum PrSp, period of incubation in AFP-solution 120.
Where [6] appears, read: strain SES2, medium 1/2PDB+, inoculum PrSp, period of incubation in AFP-solution 120.

Data on two substances can be found in patent publication US5750504A, “Antimicrobial proteins” (Zeneca Agrochemicals, priority 1996, dated 1998).

As for “Ah-AMP1: Aesculus hippocastanum antimicrobial protein 1; 5 kDa polypeptide purified from seeds, 50 amino acids, SEQ ID NO 2 (LCNERPSQTWSGNCGNTAHCDKQCQDWEKASHGACHKRENHWKCFCYFNC)”, the “inhibition of bacterial growth” value in experiment [1] (at 100 μg/ml) is given as “inhibited growth”. Moreover, the IC50 is 6 µg/mL with Penicillum digitatum (strain K0679, medium 1/2PDB-); 25 µg/mL with Penicillum digitatum (strain K0879, medium 1/2PDB+); 1.5 µg/mL in the experiment on Septoria tritici (medium 1/2PDB+); 0.5 µg/mL in the experiment with Septoria tritici (medium 1/2PDB-); above 100 µg/mL with Verticillium albo-atrum (medium 1/2PDB+); 6 µg/mL in the experiment with Verticillium albo-atrum (medium 1/2PDB-). In addition, the IC50 in the experiment with Ascochyta pisi (medium SMF+) is 15 µg/mL; with Ascochyta pisi (medium SMF-), 0.8 µg/mL; with Botrytis cinerea (medium 1/2PDB+) it was above 100 µg/mL; in the experiment with Botrytis cinerea (medium 1/2PDB-), 25 µg/mL; in the experiment on Leptospaeria maculans (setting [3]) it was 6 µg/mL; in the experiment with Leptospaeria maculans (setting [4]), 0.5 µg/mL. The IC50 in the experiment on Leptospaeria maculans (setting [5]) is below 0.75 µg/mL; in the experiment with Leptospaeria maculans (setting [6]), below 0.75 µg/mL; with Cercospora beticola, 1.5 µg/mL; in the experiment with Alternaria longipes (medium SMF+), 100 µg/mL; in the experiment with Alternaria longipes (medium SMF-) it was 25 µg/mL. Moreover, the “antifungal activity on Leptospaeria maculans (in words)” value in the experiment with Leptospaeria maculans is “highly active”. Further, the “inhibition of α-amylase activity” value in experiment [2] is listed as “no inhibition”.
Take “Hs-AFP1: Heuchera sanquinea antifungal protein 1; 5 kDa polypeptide purified from seeds, 54 amino acids, SEQ ID NO 1 (DGVKLCDVPSGTWSGHCGSSSKCSQQCKDREHFAYGGACHYQFPSVKCFCKRQC)”: in experiment [1] (tested at 200 μg/ml), the “inhibition of bacterial growth” value was “did not inhibit the growth”. Moreover, the IC50 was 1 µg/mL with Penicillum digitatum (strain K0679, medium 1/2PDB-); 3 µg/mL with Penicillum digitatum (strain K0879, medium 1/2PDB+); 3 µg/mL in the experiment with Septoria tritici (medium 1/2PDB+); 0.5 µg/mL in the experiment on Septoria tritici (medium 1/2PDB-); 30 µg/mL in the experiment with Verticillium albo-atrum (medium 1/2PDB+); 12 µg/mL in the experiment with Verticillium albo-atrum (medium 1/2PDB-). The IC50 with Ascochyta pisi (medium SMF+) was above 5 µg/mL; in the experiment on Ascochyta pisi (medium SMF-), 1.5 µg/mL; with Botrytis cinerea (medium 1/2PDB+), 25 µg/mL; in the experiment with Botrytis cinerea (medium 1/2PDB-), 6 µg/mL; in the experiment with Leptospaeria maculans (setting [3]), above 100 µg/mL; with Leptospaeria maculans (setting [4]) it was 25 µg/mL. For the same substance, the IC50 in the experiment with Leptospaeria maculans (setting [5]) is above 100 µg/mL; in the experiment with Leptospaeria maculans (setting [6]) it was above 100 µg/mL; in the experiment on Cercospora beticola, 1.5 µg/mL; with Alternaria longipes (medium SMF+), 6 µg/mL; in the experiment on Alternaria longipes (medium SMF-), 0.75 µg/mL. The “antifungal activity on Leptospaeria maculans (in words)” value in the experiment on Leptospaeria maculans was “is not”. In addition, the “inhibition of α-amylase activity” value in experiment [2] is “no inhibition”.
